Drawing on US6780994B2, “Phthalimido arylpiperazines useful in the treatment of benign prostatic hyperplasia” (Ortho-McNeil Pharmaceutical, Inc., priority 1998, dated 2004), this text covers IC50 for 31 compounds.

Structures are written as SMILES.

A word on the IC50: it is the concentration that inhibits the measured activity by half.

One test addresses T1, α1a-AR (Homo sapiens, UniProt P35348).
T1 construct: expressed in transfected cells; host or cells: COS cells, pcDNA3 vector, transient DEAE-dextran transfection
T1 sequence (P35348 1-466): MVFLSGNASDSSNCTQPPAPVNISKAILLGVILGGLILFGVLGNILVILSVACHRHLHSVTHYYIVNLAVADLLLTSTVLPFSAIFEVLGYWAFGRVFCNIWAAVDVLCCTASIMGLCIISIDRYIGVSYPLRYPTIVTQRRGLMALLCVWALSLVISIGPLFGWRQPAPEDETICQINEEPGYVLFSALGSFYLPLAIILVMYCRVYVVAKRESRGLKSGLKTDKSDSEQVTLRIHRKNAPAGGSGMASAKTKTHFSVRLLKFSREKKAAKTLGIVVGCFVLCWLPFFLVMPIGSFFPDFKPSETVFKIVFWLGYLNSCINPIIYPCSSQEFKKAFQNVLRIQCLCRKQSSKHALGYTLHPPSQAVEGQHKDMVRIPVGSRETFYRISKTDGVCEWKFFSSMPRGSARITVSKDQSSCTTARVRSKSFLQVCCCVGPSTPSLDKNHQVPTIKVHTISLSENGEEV
Description: radioligand ([125I]-HEAT) receptor binding assay, COS cell membranes expressing cloned receptor. The conditions noted are these: [125I]-HEAT 50 pM, 1 hour room temperature. From the text: The first assay tested the ability of compounds of Formula I to bind to membrane bound receptors α1a-AR, α1b-AR and α1d-AR.
The DNA sequences of the three cloned human α1-AR subtypes have been published. […] We used published DNA sequence information to design primers for use in RT-PCR amplification of each subtype to obtain cloned cDNAs. Human poly A+ RNA was obtained from commercially available sources and included hippocampus and prostate samples, sources which have been cited in the literature. For the primary screen a radioligand binding assay was used which employed membrane preparations from cells expressing the individual cloned receptor cDNAs. […] Each α1 receptor subtype was cloned from poly A+ RNA by the standard method of reverse transcription-polymerase chain reaction (RT-PCR). The following sources of polyA+ RNA were used for the cloning of the α1 receptor subtypes: α1a-AR, human hippocampus and prostate, α1b-AR, human hippocampus, α1d-AR, human hippocampus. The resulting cDNAs were cloned into the pcDNA3 mammalian expression vector (Invitrogen Corp., San Diego Calif.). Each DNA was sequenced for verification and to detect any possible mutations introduced during the amplification process. Any deviation in sequence from the published consensus for each receptor subtype was corrected by site-directed mutagenesis.
The three α1-AR subtypes (a, b, d) were transfected into COS cells using a standard DEAE-dextran procedure with a chloroquine shock. […] Approximately 72 hours post-transfection, the cells were harvested and COS membranes were prepared. Transfected COS cells from 25 plates (100 mm) were scraped and suspended in 15 mL of TE buffer (50 mM Tris-HCl, 5 mM EDTA, pH 7.4). The suspension was disrupted with a homogenizer. It was then centrifuged at 1000× g for 10 minutes at 4° C. […] The pellet was resuspended in 5 mL TNE buffer (50 mM Tris-HCl, 5 mM EDTA, 150 mM NaCl, pH 7.4). The resulting membrane preparation was aliquoted and stored at −70° C. The protein concentration was determined following membrane solubilization with TritonX-100.
The ability of each compound to bind to each of the α1-AR subtypes was assessed in a receptor binding assay. […] The plate was incubated for 1 hour at room temperature and the reaction mixtures were filtered through a Packard GF/C Unifilter filter plate. The filter plate was dried for 1 hour in a vacuum oven. Scintillation fluid ([…]) was added to each well, and the filter plate was counted in a Packard Topcount scintillation counter. Data was analyzed using GraphPad Prism software.

The next test relates to rat aorta tissues. Description: norepinephrine-induced contractile response of rat aortic rings. In kind it is cell-based. The conditions noted are these: norepinephrine-induced contraction, Long Evans rat aortic rings, 2 grams tension, 37° C.; read-out: IC50 of inhibition of contractile response in aortic tissue. An excerpt: (§1) The contractile responses of rat prostatic tissue and rat aorta tissues were examined in the presence and absence of antagonist compounds. As an indication of the selectivity of antagonism, test compound effects on vascular smooth muscle contractility (α1b-AR and α1d-AR) were compared to the effects on prostatic smooth muscle (α1a-AR). Strips of prostatic tissue and aortic rings were obtained from Long Evans derived male rats weighing 275 grams and sacrificed by cervical dislocation. The prostate tissue was placed under 1 gram tension in a 10 ml bath containing phosphate buffered saline pH 7.4 at 32° C. and isometric tension was measured with force transducers. The aortic tissue was placed under 2 grams tension in a 10 ml bath containing phosphate buffered saline pH 7.4 at 37° C.

The next test relates to rat prostatic tissue. The test can be described thus: norepinephrine-induced contractile response of rat prostatic tissue strips. The class given is cell-based. The conditions noted are these: norepinephrine-induced contraction, Long Evans rat prostatic strips, 1 gram tension, 32° C.; read-out: IC50 of inhibition of contractile response in prostate tissue.
From the text: as §1

`CC(C)Oc1ccccc1N1CCN(CC(O)CNC(=O)c2ccc3c(c2)C(=O)N(c2ccc(C(C)(C)C)cc2)C3=O)CC1` (centres unmarked) [Compound 41] returned an IC50 on α1a-AR of 3.5 nM. The same measure, in the same setting: the value for `CC(C)Oc1ccccc1N1CCN(CCCNC(=O)c2ccc3c(c2)C(=O)N(c2ccc(N(C)C)cc2)C3=O)CC1` [Compound 44] was 0.18 nM; that for `CC(C)Oc1ccccc1N1CCN(CC(O)CNC(=O)c2ccc3c(c2)C(=O)N(c2ccc(O)cc2)C3=O)CC1` (centres unmarked) [Compound 58] was 0.88 nM. Compound `Cc1ccc(N2C(=O)c3ccc(C(=O)NCC(O)CN4CCN(c5ccccc5OC(C)C)CC4)cc3C2=O)cc1` (centres unmarked) [Compound 52] returned a half-maximal inhibitory concentration (IC50) on α1a-AR of 0.66 nM.

As for `CC(C)Oc1ccccc1N1CCN(CC(O)CNC(=O)c2ccc3c(c2)C(=O)N(c2ccc(N(C)C)cc2)C3=O)CC1` (centres unmarked) [Compound 28], the IC50 at α1a-AR came to 0.8 nM.

Compound `CC(C)Oc1ccccc1N1CCN(CC(O)CNC(=O)c2ccc3c(c2)C(=O)N(c2cc(F)cc(F)c2)C3=O)CC1` (centres unmarked) [Compound 29] yielded an IC50 on α1a-AR of 0.89 nM.

As for `COc1ccc(N2C(=O)c3ccc(C(=O)NCCCN4CCN(c5ccccc5OC(C)C)CC4)cc3C2=O)cc1` [Compound 45], the results for the half-inhibitory concentration (IC50) at α1a-AR, in the test with rat aorta tissues and in the test with rat prostatic tissue were 0.11 nM, 3300 nM and 40 nM, respectively. Regarding `COc1ccccc1N1CCN(CC(O)CNC(=O)c2ccc3c(c2)C(=O)N(c2cccc(F)c2)C3=O)CC1` (centres unmarked) [Compound 43], the half-maximal inhibitory concentration (IC50) on α1a-AR was 22 nM. For `COc1ccccc1N1C(=O)c2ccc(C(=O)NCC(O)CN3CCN(c4ccccc4OC(C)C)CC3)cc2C1=O` (centres unmarked) [Compound 26], the concentration for half-maximal inhibition (IC50) at α1a-AR stood at 1.6 nM. On α1a-AR, `CC(C)Oc1ccccc1N1CCN(CCCNC(=O)c2ccc3c(c2)C(=O)N(c2ccc(O)cc2)C3=O)CC1` [Compound 47] gave an IC50 of 0.2 nM. `Cc1ccc(N2C(=O)c3ccc(C(=O)NCCCN4CCN(c5ccccc5OC(C)C)CC4)cc3C2=O)cc1` [Compound 46] gave a half-maximal inhibitory concentration (IC50) at α1a-AR of 0.1 nM. As for `CC(C)Oc1ccccc1N1CCN(C[C@@H](O)CNC(=O)c2ccc3c(c2)C(=O)N(c2ccc(N(C)C)cc2)C3=O)CC1` [Compound 21, (S)-2-[4-(dimethylamino)phenyl]-2,3-dihydro-N-[2-hydroxy-3-[4-[2-(1-methylethoxy)phenyl]-1-piperazinyl]propyl]-1,3-dioxo-1H-isoindole-5-carboxamide], the half-maximal inhibitory concentration (IC50) at α1a-AR was found to be 0.36 nM; in the test with rat aorta tissues, 22400 nM; in the test on rat prostatic tissue, 810 nM. Regarding `CC(C)Oc1ccccc1N1CCN(CC(O)CNC(=O)c2ccc3c(c2)C(=O)N(c2ccc(O)cc2)C3=O)CC1` (single isomer, unassigned) [Compound 35], the half-inhibitory concentration (IC50) on α1a-AR amounted to 0.46 nM.

`CC(C)Oc1ccccc1N1CCN(CCCNC(=O)c2ccc3c(c2)C(=O)N(c2cccc(F)c2)C3=O)CC1` [Compound 6]: the half-maximal inhibitory concentration (IC50) on α1a-AR was determined as 0.41 nM; with rat aorta tissues, 2800 nM; with rat prostatic tissue, 130 nM. Regarding `CC(C)Oc1ccccc1N1CCN(C[C@H](O)CNC(=O)c2ccc3c(c2)C(=O)N(c2cccc(F)c2)C3=O)CC1` [Compound 27], the IC50 at α1a-AR was determined as 8 nM. For `CCOc1ccccc1N1CCN(CC(O)CNC(=O)c2ccc3c(c2)C(=O)N(c2cccc(F)c2)C3=O)CC1` (centres unmarked) [Compound 42], the IC50 on α1a-AR was 4.25 nM. On to `CC(C)Oc1ccccc1N1CCN(CC(O)CNC(=O)c2ccc3c(c2)C(=O)N(c2cccc(C(F)(F)F)c2)C3=O)CC1` (centres unmarked) [Compound 57], for which, on α1a-AR, the half-inhibitory concentration (IC50) was 0.74 nM. On α1a-AR, `CC(C)Oc1ccccc1N1CCN(CC(O)CNC(=O)c2ccc3c(c2)C(=O)N(c2ccc(F)cc2)C3=O)CC1` (centres unmarked) [Compound 50] came in with an IC50 of 1.5 nM. As to `CC(C)Oc1ccccc1N1CCN(CC(O)CNC(=O)c2ccc3c(c2)C(=O)N(c2cccc(F)c2)C3=O)CC1` (racemic) [Compound 4], the figures for the half-maximal inhibitory concentration (IC50) at α1a-AR, in the test on rat aorta tissues and in the test with rat prostatic tissue were 1.5 nM, 63200 nM and 640 nM, respectively.

Turning to `CC(C)Oc1ccccc1N1CCN(CC(O)CNC(=O)c2ccc3c(c2)C(=O)N(c2ccc(Cl)c(Cl)c2)C3=O)CC1` (centres unmarked) [Compound 56], the IC50 on α1a-AR was determined as 0.81 nM. With `COC(CNC(=O)c1ccc2c(c1)C(=O)N(c1cccc(F)c1)C2=O)CN1CCN(c2ccccc2OC(C)C)CC1` (centres unmarked) [Compound 14], on α1a-AR, the concentration for half-maximal inhibition (IC50) was 7 nM. On the same count and under the same terms, then `CC(C)Oc1ccccc1N1CCN(CC(O)CNC(=O)c2ccc3c(c2)C(=O)N(c2cccnc2)C3=O)CC1` (centres unmarked) [Compound 11], with 1.9 nM; and `CC(=O)c1ccc(N2C(=O)c3ccc(C(=O)NCC(O)CN4CCN(c5ccccc5OC(C)C)CC4)cc3C2=O)cc1` (centres unmarked) [Compound 48], with 1 nM. With `CC(C)Oc1ccccc1N1CCN(C[C@@H](O)CNC(=O)c2ccc3c(c2)C(=O)N(c2cccc(F)c2)C3=O)CC1` [Compound 9], the IC50 on α1a-AR was found to be 1 nM; in the test on rat aorta tissues, 6500 nM; in the test with rat prostatic tissue, 230 nM. At α1a-AR, `CC(C)Oc1ccccc1N1CCN(CC(O)CNC(=O)c2ccc3c(c2)C(=O)N(c2cccc(Cl)c2)C3=O)CC1` (centres unmarked) [Compound 54] had a 50% inhibitory concentration (IC50) of 0.73 nM. Consider `CC(C)Oc1ccccc1N1CCN(CC(O)CNC(=O)c2ccc3c(c2)C(=O)N(c2ccc([N+](=O)[O-])cc2)C3=O)CC1` (centres unmarked) [Compound 30], for which the half-inhibitory concentration (IC50) on α1a-AR is 1.8 nM. On the same count and under the same terms, then `CC(C)Oc1ccccc1N1CCN(CC(O)CNC(=O)c2ccc3c(c2)C(=O)N(c2ccc(Cl)cc2)C3=O)CC1` (centres unmarked) [Compound 53], with 0.95 nM. Still for that read-out and setting: then `CC(C)Oc1ccccc1N1CCN(CC(O)CNC(=O)c2ccc3c(c2)C(=O)N(c2ccccc2)C3=O)CC1` (centres unmarked) [Compound 51], with 0.9 nM; and `COc1ccc(N2C(=O)c3ccc(C(=O)NCC(O)CN4CCN(c5ccccc5OC(C)C)CC4)cc3C2=O)cc1OC` (centres unmarked) [Compound 38], with 0.93 nM; and `Cc1ccc(N2C(=O)c3ccc(C(=O)NCC(O)CN4CCN(c5ccccc5OC(C)C)CC4)cc3C2=O)cc1C` (centres unmarked) [Compound 39], with 0.44 nM.

On to `Cc1cccc(N2C(=O)c3ccc(C(=O)NCC(O)CN4CCN(c5ccccc5OC(C)C)CC4)cc3C2=O)c1` (centres unmarked) [Compound 49], for which the IC50 at α1a-AR is 0.9 nM.
